# Test results taken from PubChem BioAssay AID1963831 (Molecular Pharmacology Branch, DTP, NCI, 2024).
# pIC50: −log10 of the molar value.
# Tested on: 889142-216-R-J1-PDC complex spheroid viability
# Test: Anticancer human tumor 889142-216-R-J1-PDC patient-derived bladder carcinoma cell line growth inhibition [POLQ]
# Conditions: for pIC50: curve of first compound; for viability, T/C: stronger effect = lower value
# How it was run: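 PDC + HUVEC + MSC complex spheroids; POLQ inhibitors ± partner drugs; top conc. at/near clinical Cmax, else 10 microM (SN-38 1 microM), half-log dilutions; 37 degrees C, 5% CO2.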
# 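Further: spheroids exposed to compounds for seven days.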
# 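Wherever viability, T/C is given: 100% = DMSO vehicle control viability.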
structure (smiles),measurement,setting,value
CC1COCCN1c1cc(C2(O)CC3CCC(C2)O3)c2cnn(-c3ccn[nH]3)c2n1 (centres undefined) + Cc1cccc(N(C)C(=O)C2C(O)CCN2c2nc(C)cc(C(F)(F)F)c2C#N)c1,pIC50,second compound 0.0316 µM,6.88
same,pIC50,second compound 0.1 µM,7.15
same,pIC50,second compound 0.316 µM,6.88
same,pIC50,second compound 1 µM,6.99
same,pIC50,second compound 3.16 µM,7.01
same,pIC50,second compound 10 µM,7.25
same,"viability, T/C","second compound 0.0316 µM, first compound 0.0316 µM",66.5%
same,"viability, T/C","second compound 0.0316 µM, first compound 0.1 µM",48.2%
same,"viability, T/C","second compound 0.0316 µM, first compound 0.316 µM",42.3%
same,"viability, T/C","second compound 0.0316 µM, first compound 1 µM",34.2%
same,"viability, T/C","second compound 0.0316 µM, first compound 3.16 µM",26.1%
same,"viability, T/C","second compound 0.0316 µM, first compound 10 µM",14.6%
same,"viability, T/C","second compound 0.1 µM, first compound 0.0316 µM",56.7%
same,"viability, T/C","second compound 0.1 µM, first compound 0.1 µM",48.1%
same,"viability, T/C","second compound 0.1 µM, first compound 0.316 µM",36.1%
same,"viability, T/C","second compound 0.1 µM, first compound 1 µM",29%
same,"viability, T/C","second compound 0.1 µM, first compound 3.16 µM",23.8%
same,"viability, T/C","second compound 0.1 µM, first compound 10 µM",15.2%
same,"viability, T/C","second compound 0.316 µM, first compound 0.0316 µM",66.8%
same,"viability, T/C","second compound 0.316 µM, first compound 0.1 µM",49.5%
same,"viability, T/C","second compound 0.316 µM, first compound 0.316 µM",39.8%
same,"viability, T/C","second compound 0.316 µM, first compound 1 µM",34.5%
same,"viability, T/C","second compound 0.316 µM, first compound 3.16 µM",25.9%
same,"viability, T/C","second compound 0.316 µM, first compound 10 µM",12.4%
same,"viability, T/C","second compound 1 µM, first compound 0.0316 µM",62.7%
same,"viability, T/C","second compound 1 µM, first compound 0.1 µM",48.4%
same,"viability, T/C","second compound 1 µM, first compound 0.316 µM",38.9%
same,"viability, T/C","second compound 1 µM, first compound 1 µM",31.2%
same,"viability, T/C","second compound 1 µM, first compound 3.16 µM",22.6%
same,"viability, T/C","second compound 1 µM, first compound 10 µM",12.4%
same,"viability, T/C","second compound 3.16 µM, first compound 0.0316 µM",61.5%
same,"viability, T/C","second compound 3.16 µM, first compound 0.1 µM",47.9%
same,"viability, T/C","second compound 3.16 µM, first compound 0.316 µM",40%
same,"viability, T/C","second compound 3.16 µM, first compound 1 µM",30.6%
same,"viability, T/C","second compound 3.16 µM, first compound 3.16 µM",26.4%
same,"viability, T/C","second compound 3.16 µM, first compound 10 µM",13.7%
same,"viability, T/C","second compound 10 µM, first compound 0.0316 µM",55.9%
same,"viability, T/C","second compound 10 µM, first compound 0.1 µM",43.6%
same,"viability, T/C","second compound 10 µM, first compound 0.316 µM",37.6%
same,"viability, T/C","second compound 10 µM, first compound 1 µM",29.5%
same,"viability, T/C","second compound 10 µM, first compound 3.16 µM",29.9%
same,"viability, T/C","second compound 10 µM, first compound 10 µM",13.3%
CC(=O)O[C@H]1C(=O)[C@@]2(C)[C@H]([C@H](OC(=O)c3ccccc3)[C@]3(O)C[C@H](OC(=O)[C@H](O)[C@@H](NC(=O)c4ccccc4)c4ccccc4)C(C)=C1C3(C)C)[C@]1(OC(C)=O)CO[C@@H]1C[C@@H]2O + Nc1ccc(C#CCN(C(=O)Cc2ncc(C(F)(F)F)cc2C(F)(F)F)c2ccc(F)cc2)nn1,pIC50,second compound 0.0316 µM,7.14
same,pIC50,second compound 0.1 µM,6.04
same,pIC50,second compound 0.316 µM,< 5.52
same,pIC50,second compound 1 µM,5.88
same,pIC50,second compound 3.16 µM,> 8.02
same,pIC50,second compound 10 µM,< 5.52
same,"viability, T/C","second compound 0.0316 µM, first compound 0.00949 µM",53.5%
same,"viability, T/C","second compound 0.0316 µM, first compound 0.03 µM",45.8%
same,"viability, T/C","second compound 0.0316 µM, first compound 0.0949 µM",51.5%
same,"viability, T/C","second compound 0.0316 µM, first compound 0.3 µM",50.9%
same,"viability, T/C","second compound 0.0316 µM, first compound 0.949 µM",49.4%
same,"viability, T/C","second compound 0.0316 µM, first compound 3 µM",43.8%
same,"viability, T/C","second compound 0.1 µM, first compound 0.00949 µM",57.1%
same,"viability, T/C","second compound 0.1 µM, first compound 0.03 µM",41.5%
same,"viability, T/C","second compound 0.1 µM, first compound 0.0949 µM",54.6%
same,"viability, T/C","second compound 0.1 µM, first compound 0.3 µM",51.2%
same,"viability, T/C","second compound 0.1 µM, first compound 0.949 µM",53.1%
same,"viability, T/C","second compound 0.1 µM, first compound 3 µM",47.1%
same,"viability, T/C","second compound 0.316 µM, first compound 0.00949 µM",53%
same,"viability, T/C","second compound 0.316 µM, first compound 0.03 µM",57.2%
same,"viability, T/C","second compound 0.316 µM, first compound 0.0949 µM",46.3%
same,"viability, T/C","second compound 0.316 µM, first compound 0.3 µM",50.3%
same,"viability, T/C","second compound 0.316 µM, first compound 0.949 µM",61.7%
same,"viability, T/C","second compound 0.316 µM, first compound 3 µM",50.9%
same,"viability, T/C","second compound 1 µM, first compound 0.00949 µM",53.7%
same,"viability, T/C","second compound 1 µM, first compound 0.03 µM",51%
same,"viability, T/C","second compound 1 µM, first compound 0.0949 µM",52%
same,"viability, T/C","second compound 1 µM, first compound 0.3 µM",50.6%
same,"viability, T/C","second compound 1 µM, first compound 0.949 µM",51.8%
same,"viability, T/C","second compound 1 µM, first compound 3 µM",48.6%
same,"viability, T/C","second compound 3.16 µM, first compound 0.00949 µM",45.2%
same,"viability, T/C","second compound 3.16 µM, first compound 0.03 µM",54%
same,"viability, T/C","second compound 3.16 µM, first compound 0.0949 µM",51.3%
same,"viability, T/C","second compound 3.16 µM, first compound 0.3 µM",46.7%
same,"viability, T/C","second compound 3.16 µM, first compound 0.949 µM",53.3%
same,"viability, T/C","second compound 3.16 µM, first compound 3 µM",57.1%
same,"viability, T/C","second compound 10 µM, first compound 0.00949 µM",55%
same,"viability, T/C","second compound 10 µM, first compound 0.03 µM",52.2%
same,"viability, T/C","second compound 10 µM, first compound 0.0949 µM",55.5%
same,"viability, T/C","second compound 10 µM, first compound 0.3 µM",59.3%
same,"viability, T/C","second compound 10 µM, first compound 0.949 µM",59.9%
same,"viability, T/C","second compound 10 µM, first compound 3 µM",53.3%
